{"source": "patent US20250332167A1", "about": "“PHARMACEUTICAL USE OF CDK 4/6 INHIBITOR” (priority 2021, published 2025)", "key": {"NCI-H1703": {"tested_on": "NCI-H1703", "assay": "Proliferation inhibition, non-small cell lung cancer cell line NCI-H1703", "assay_type": "cell-based", "details": "Homo sapiens, NCI-H1703, 72 h", "procedure": "(§1) Sixteen non-small cell lung cancer cell lines, including NCI-H1792, NCI-H1703, NCI-H441, SNU-761, NCI-H1975, NCI-H358, NCI-H1838, NCI-H1915, A549, SK-MES-1, NCI-H292, PC-9, NCI-H460, NCI-H23, NCI-H1581, and HLF, were used for the proliferation inhibition assay of the present invention compound. […] The cell detection equipment used was In Cell Analyzer 2200 (GE Healthcare).\n(§2) With 60 μM as the initial concentration, ten points were obtained by serial five-fold dilution.\n(§3) Each kind of cell in logarithmic growth phase was inoculated with 4000 cells/100 μl/well into a black transparent bottom 96-well plate and cultured overnight at 37° C. The next day, the plate was taken out, and 20 μL of the prepared sample dilutions was added to each well. The plate was then subjected to treatment at 37° C. for 72 hours. After the treatment period of 72 hours, the plate was taken out and 50 μL of neutral formaldehyde fixative (formaldehyde: PBS=1:9, 50 μl/well) was added to each well. The plate was then fixed at room temperature for 10-30 minutes. Subsequently, the wells were washed twice with 1× PBS (100 μl/well) and treated with 0.2% Triton™-X100 for 5-10 minutes to permeabilize the cells. […] The inhibitory rates of each compound at different concentration points were calculated by using the following formula, and IC50 values were obtained through curve fitting using GraphPad Prism 6.0 software."}, "NCI-H358": {"tested_on": "NCI-H358", "assay": "Proliferation inhibition, non-small cell lung cancer cell line NCI-H358", "assay_type": "cell-based", "details": "Homo sapiens, NCI-H358, 72 h", "procedure": "as §1, §2, §3"}, "NCI-H23": {"tested_on": "NCI-H23", "assay": "Proliferation inhibition, non-small cell lung cancer cell line NCI-H23", "assay_type": "cell-based", "details": "Homo sapiens, NCI-H23, 72 h", "procedure": "as §1, §2, §3"}, "NCI-H460": {"tested_on": "NCI-H460", "assay": "Proliferation inhibition, non-small cell lung cancer cell line NCI-H460", "assay_type": "cell-based", "details": "Homo sapiens, NCI-H460, 72 h", "procedure": "as §1, §2, §3"}, "PC-9": {"tested_on": "PC-9", "assay": "Proliferation inhibition, non-small cell lung cancer cell line PC-9", "assay_type": "cell-based", "details": "Homo sapiens, PC-9, 72 h", "procedure": "as §1, §2, §3"}, "[1]": {"tested_on": "Human glioblastoma model (BN2289)", "assay": "Human glioblastoma xenograft mouse model (BN2289)", "assay_type": "in vivo, BALB/C nude mice", "details": "for Day 21 Tumor Volume / Relative Average Tumor Volume / T/C (relative tumor growth rate) / TGI (relative tumor inhibition rate): day 21", "source_text": "Human glioblastoma model (BN2289, Crown Bioscience Co., Ltd.) tumor fragments were cut into small pieces with a diameter of 2-3 mm and subcutaneously inoculated into the right side of BALB/C nude mice. Tumor growth was monitored regularly, and when the tumors grew to an average volume of approximately 100-200 mm^3, mice were randomly divided into groups based on the tumor size.\nEach group consisted of 8 mice and received oral gavage administration once daily for a total of 28 days. Regular observations were made on tumor volume and changes in body weight. Efficacy evaluation was conducted based on the relative tumor growth rate (T/C) and the relative tumor inhibition rate (TGI).\nThe formula for calculating tumor volume was: Tumor Volume (mm^3)=½×(a×b^2) (where “a” represents the long diameter and “b” represents the short diameter).\nThe relative tumor growth rate (T/C) is the percentage value of the relative tumor volume or weight between the treatment group and the control group at a certain time point. The calculation formula is as follows: • T/C(%)=TRTV/CRTV×100% (TRTV: Average RTV of the treatment group; CRTV: Average RTV of the Vehicle group; RTV=Vt/V0, where V0 is the tumor volume of the animal at the time of grouping and Vt is the tumor volume of the animal after treatment).\n(T and C are the relative tumor volume (RTV) or weight (TW) of the treatment group and control group at a specific time point, respectively)."}, "NCI-H1975": {"tested_on": "NCI-H1975", "assay": "Proliferation inhibition, non-small cell lung cancer cell line NCI-H1975", "assay_type": "cell-based", "details": "Homo sapiens, NCI-H1975, 72 h", "procedure": "as §1, §2, §3"}, "HLF": {"tested_on": "HLF", "assay": "Proliferation inhibition, non-small cell lung cancer cell line HLF", "assay_type": "cell-based", "details": "Homo sapiens, 72 h", "procedure": "as §1, §2, §3"}, "NCI-H1915": {"tested_on": "NCI-H1915", "assay": "Proliferation inhibition, non-small cell lung cancer cell line NCI-H1915", "assay_type": "cell-based", "details": "Homo sapiens, NCI-H1915, 72 h", "procedure": "as §1, §2, §3"}, "NCI-H292": {"tested_on": "NCI-H292", "assay": "Proliferation inhibition, non-small cell lung cancer cell line NCI-H292", "assay_type": "cell-based", "details": "Homo sapiens, NCI-H292, 72 h", "procedure": "as §1, §2, §3"}, "NCI-H441": {"tested_on": "NCI-H441", "assay": "Proliferation inhibition, non-small cell lung cancer cell line NCI-H441", "assay_type": "cell-based", "details": "Homo sapiens, NCI-H441, 72 h", "procedure": "as §1, §2, §3"}, "A549": {"tested_on": "A549", "assay": "Proliferation inhibition, non-small cell lung cancer cell line A549", "assay_type": "cell-based", "details": "Homo sapiens, A549, 72 h", "procedure": "as §1, §2, §3"}, "SNU-761": {"tested_on": "SNU-761", "assay": "Proliferation inhibition, non-small cell lung cancer cell line SNU-761", "assay_type": "cell-based", "details": "Homo sapiens; SNU-761, 72 h", "procedure": "as §1, §2, §3"}, "NCI-H1838": {"tested_on": "NCI-H1838", "assay": "Proliferation inhibition, non-small cell lung cancer cell line NCI-H1838", "assay_type": "cell-based", "details": "Homo sapiens, NCI-H1838, 72 h", "procedure": "as §1, §2, §3"}, "[2]": {"details": "10 mg/kg oral gavage once daily"}, "[3]": {"details": "25 mg/kg oral gavage once daily"}, "[4]": {"details": "50 mg/kg oral gavage once daily"}}, "data": [{"smiles": "CC1=Nc2c(F)cc(-c3nc(Nc4ccc(C5CCN(C)CC5)cn4)ncc3F)cc2C12CCCC2.O=C(O)/C=C/C(=O)O", "note": "[Compound A, Fumarate salt of 5-fluoro-4-(7′-fluoro-2′-methylspiro[cyclopentane-1,3′-indol]-5′-yl)-N-(5-(1-methylpiperidin-4-yl)pyridin-2-yl)pyrimidine-2-amine]", "values": [{"measurement": "IC50", "setting": "NCI-H1703", "result": 0.003, "unit": "µM"}, {"measurement": "IC50", "setting": "NCI-H358", "result": 0.017, "unit": "µM"}, {"measurement": "IC50", "setting": "NCI-H23", "result": 0.243, "unit": "µM"}, {"measurement": "IC50", "setting": "NCI-H460", "result": 0.235, "unit": "µM"}, {"measurement": "IC50", "setting": "PC-9", "result": 0.18, "unit": "µM"}, {"measurement": "Day 21 Tumor Volume", "setting": "[1]; 5 mg/kg oral gavage once daily", "result": "2038.41 ± 177.46", "unit": "mm^3"}, {"measurement": "Relative Average Tumor Volume", "setting": "[1]; 5 mg/kg oral gavage once daily", "result": 13.80}, {"measurement": "T/C (relative tumor growth rate)", "setting": "[1]; 5 mg/kg oral gavage once daily", "result": 95.08, "unit": "%"}, {"measurement": "TGI (relative tumor inhibition rate)", "setting": "[1]; 5 mg/kg oral gavage once daily", "result": 4.92, "unit": "%"}, {"measurement": "Day 21 Tumor Volume", "setting": "[1]; [2]", "result": "1900.70 ± 134.20", "unit": "mm^3"}, {"measurement": "Relative Average Tumor Volume", "setting": "[1]; [2]", "result": 12.81}, {"measurement": "T/C (relative tumor growth rate)", "setting": "[1]; [2]", "result": 88.24, "unit": "%"}, {"measurement": "TGI (relative tumor inhibition rate)", "setting": "[1]; [2]", "result": 11.76, "unit": "%"}, {"measurement": "Day 21 Tumor Volume", "setting": "[1]; [3]", "result": "1302.81 ± 119.99", "unit": "mm^3"}, {"measurement": "Relative Average Tumor Volume", "setting": "[1]; [3]", "result": 8.80}, {"measurement": "T/C (relative tumor growth rate)", "setting": "[1]; [3]", "result": 60.61, "unit": "%"}, {"measurement": "TGI (relative tumor inhibition rate)", "setting": "[1]; [3]", "result": 39.39, "unit": "%"}, {"measurement": "Day 21 Tumor Volume", "setting": "[1]; [4]", "result": "938.13 ± 52.26", "unit": "mm^3"}, {"measurement": "Relative Average Tumor Volume", "setting": "[1]; [4]", "result": 6.32}, {"measurement": "T/C (relative tumor growth rate)", "setting": "[1]; [4]", "result": 43.56, "unit": "%"}, {"measurement": "TGI (relative tumor inhibition rate)", "setting": "[1]; [4]", "result": 56.44, "unit": "%"}, {"measurement": "Drug toxicity / tolerance (body weight)", "setting": "[1]; 5-50 mg/kg oral gavage once daily, 28 days", "result": "no significant toxic side effects"}, {"measurement": "IC50", "setting": "NCI-H1975", "result": 0.01, "unit": "µM"}, {"measurement": "IC50", "setting": "HLF", "result": 2.01, "unit": "µM"}, {"measurement": "IC50", "setting": "NCI-H1915", "result": 0.053, "unit": "µM"}, {"measurement": "IC50", "setting": "NCI-H292", "result": 0.073, "unit": "µM"}, {"measurement": "IC50", "setting": "NCI-H441", "result": 0.007, "unit": "µM"}, {"measurement": "IC50", "setting": "A549", "result": 0.066, "unit": "µM"}, {"measurement": "IC50", "setting": "SNU-761", "result": 0.008, "unit": "µM"}, {"measurement": "IC50", "setting": "NCI-H1838", "result": 0.0479, "unit": "µM"}]}]}
